Each structure is given as a SMILES string. Counter-ions that a name gives are not always drawn. Like-named read-outs stand apart in the source and are kept apart here.

For test [1], the system named is AGS cells. In words: Cell viability in AGS cells (CellTiter Glo2, 8-point dose response, 4 days). The class given is cell-based, human. How it is done:
AGS cells were treated with DMSO (no drug control) or each compound in Table 5 in an 8-point dose response for 4 days. Cell viability was measured using CellTiter Glo2. The IC50 of each compound was determined using CDD Vault.

The test system of test [2] is MV-4-11 cells. In words: Cell viability in MV-4-11 cells (CellTiter Glo2, 4 days). The class given is cell-based. The settings on record: Homo sapiens, MV4-11, 96 h. Here is the method: Approximately 10,000 MV-4-11 cells per well of a 96-well plate were treated with DMSO (no drug control) or each compound in Table 6 in an 8-point dose response for 4 days. Cell viability was measured using CellTiter Glo2. The IC50 of each compound was determined using CDD Vault.

Test [3] has as its system RS4;11 cells. In words: Cell viability in RS4;11 cells (CellTiter Glo2, 4 days). Format: cell-based. The settings on record: Homo sapiens, 96 h. How it is done:
Approximately 10,000 RS4;11 cells per well of a 96-well plate were treated with DMSO (no drug control) or each compound in Table 6 in an 8-point dose response for 4 days. Cell viability was measured using CellTiter Glo2. The IC50 of each compound was determined using CDD Vault.
Background: Cellular ATP, detected with luciferase, serves as a proxy for viable cell number.

As a reminder, the IC50 is the concentration at which inhibition is half-maximal. A higher IC50 goes with a need for much substance. As for `CCC(=O)N(C)c1ccc(-c2ccc(C(=O)NCc3cccnc3)cc2)cc1` [Compound I-45, 4′-(N-methylpropionamido)-N-(pyridin-3-ylmethyl)-[1,1′-biphenyl]-4-carboxamide], the IC50 in test [1] was found to be 4.29 µM; in test [1] (Homo sapiens, AGS, 96 h) it was 4.45 µM; in test [2] it was 0.218 µM; in test [3] it was 0.689 µM.
In the same order, the values of `CCC(=O)N1CCc2c1ccc(-c1ccc(C(=O)NCc3cccnc3)cc1)c2C` [Compound I-80, 4-(4-methyl-1-propionylindolin-5-yl)-N-(pyridin-3-ylmethyl)benzamide] are 0.653 µM, 0.49 µM, 0.565 µM and 0.886 µM.
With `CCC(=O)N(C)c1ccc(-c2ccc(C(=O)NCc3cccnc3)cc2)cc1Cl` [Compound I-225, 3′-chloro-4′-(N-methylpropionamido)-N-(pyridin-3-ylmethyl)-[1,1′-biphenyl]-4-carboxamide], the IC50 amounted to 1.09 µM in test [1] (Homo sapiens, AGS, 96 h); 0.613 µM in test [2]; 0.237 µM in test [3].
For the molecule `CCC(=O)N1CCc2cc(-c3ccc(C(=O)NCc4cccnc4)cc3)ccc21` [Compound I-43, 4-(1-propionylindolin-5-yl)-N-(pyridin-3-ylmethyl) benzamide], the IC50 in test [1] worked out at 2.36 µM; in test [1] (Homo sapiens, AGS, 96 h), 2.48 µM; in test [2], 2.93 µM; in test [3], 0.606 µM.
Consider `CCC(=O)N(C)c1ccc(-c2nc(C(=O)NCc3cccnc3)cs2)cc1` [Compound I-241, 2-(4-(N-methylpropionamido)phenyl)-N-(pyridin-3-ylmethyl)thiazole-4-carboxamide], for which the 50% inhibitory concentration (IC50) in test [1] (Homo sapiens, AGS, 96 h) was above 30 µM; in test [2] it was 3.92 µM; in test [3], 10.5 µM.
Turning to `CCC(=O)N1CCc2cc(-c3ccc(C(=O)NCc4cccnc4)c(F)c3)ccc21` [Compound I-98, 2-fluoro-4-(1-propionylindolin-5-yl)-N-(pyridin-3-ylmethyl) benzamide], the IC50 was 0.845 µM in test [2] and above 30 µM in test [3].
Take `COCCN1CCc2cc(-c3ccc(C(=O)NCc4cccnc4)cc3)ccc21` [Compound I-53, 4-(1-(2-methoxyethyl)indolin-5-yl)-N-(pyridin-3-ylmethyl)benzamide]: the IC50 in test [1] (Homo sapiens, AGS, 96 h) turned out to be 3.52 µM.
Consider `CCC(=O)N1CCc2cc(-c3ccc(C(=O)NCc4cccnc4)cc3OC)ccc21` [Compound I-94, 3-methoxy-4-(1-propionylindolin-5-yl)-N-(pyridin-3-ylmethyl)benzamide], for which the half-maximal inhibitory concentration (IC50) was 8.71 µM in test [1] and 7.86 µM in test [1] (Homo sapiens, AGS, 96 h).
Consider `CCC(=O)N1CCc2cc(-c3ccc(C(=O)NCc4cn[nH]c4)cc3)ccc21` [Compound I-72, N-((1H-pyrazol-4-yl)methyl)-4-(1-propionylindolin-5-yl)benzamide], for which the IC50 in test [1] (Homo sapiens, AGS, 96 h) is above 30 µM.
In test [1] (Homo sapiens, AGS, 96 h), `CCC(=O)N1CCc2cc(-c3ccc(C(=O)NCc4cncc(C)c4)cc3)ccc21` [Compound I-198, N-((5-methylpyridin-3-yl)methyl)-4-(1-propionylindolin-5-yl)benzamide] yielded an IC50 of 1.06 µM.
The molecule `CCC(=O)N(C)c1ccc(-c2ccc(C(=O)NCc3cccnc3)cc2)cc1OC` [Compound I-248, 3′-methoxy-4′-(N-methylpropionamido)-N-(pyridin-3-ylmethyl)-[1,1′-biphenyl]-4-carboxamide] displayed an IC50 in test [1] (Homo sapiens, AGS, 96 h) of 3.59 µM.
On to `CCC(=O)N1CCc2cc(-c3ccc(C(=O)NCc4cnccc4C)cc3)ccc21` [Compound I-188, N-((4-methylpyridin-3-yl)methyl)-4-(1-propionylindolin-5-yl)benzamide], for which the IC50 in test [1] (Homo sapiens, AGS, 96 h) was above 30 µM.
In test [1] (Homo sapiens, AGS, 96 h), `CCC(=O)N1CCc2cc(N3CC(C(=O)NCc4cccnc4)C3)ccc21` [Compound I-209, 1-(1-propionylindolin-5-yl)-N-(pyridin-3-ylmethyl)azetidine-3-carboxamide] displayed an IC50 above 30 µM.
Still for that read-out and setting: for `CCC(=O)N(C)c1ccc(-c2ccc(C(=O)NCc3ccc(C)nc3C)cc2)cc1` [Compound I-221] the value was 0.607 µM.
In test [1] (Homo sapiens, 96 h), `CCC(=O)N1CCc2cc(-c3ccc(C(=O)NCC4=CC[NH2+]CC4)cc3)ccc21` [Mono- formate of I-69, Monoformate 4-(1-propionylindolin-5-yl)-N-((1,2,3,6-tetrahydropyridin-4-yl)methyl)benzamide] registered an IC50 above 30 µM.
Turning to `CCC(=O)N1CCc2c1ccc(-c1ccc(C(=O)NCc3cccnc3)cc1)c2Cl` [Compound I-214], in test [1] (Homo sapiens, AGS, 96 h), it took 0.96 µM to reach half-maximal inhibition (IC50).
Take `CCC(=O)N1CCc2cc(-c3ccc(C(=O)NCc4cccnc4)cc3)c(Cl)cc21` [Compound I-212]: it took 1.35 µM to reach half-maximal inhibition in test [1] (Homo sapiens, AGS, 96 h) (IC50).
As for `CCC(=O)N1CCc2nc(-c3ccc(C(=O)NCc4cccnc4)cc3)ccc21` [Compound I-71, 4-(1-propionyl-2,3-dihydro-1H-pyrrolo[3,2-b]pyridin-5-yl)-N-(pyridin-3-ylmethyl)benzamide], the IC50 in test [1] (Homo sapiens, AGS, 96 h) worked out at 4.35 µM.
In the case of `CCC(=O)N(C)c1ccc(-c2ccc(C(=O)NCc3cncc(F)c3)cc2)cc1` [Compound I-234], the IC50 in test [1] (Homo sapiens, AGS, 96 h) is above 30 µM.
As to `CCC(=O)N(C)c1ccc(-c2ccc(C(=O)NCc3ccccc3)cc2)cc1` [Compound I-239], in test [1] (Homo sapiens, AGS, 96 h), the IC50 is above 30 µM.
Take `CCC(=O)N1CCc2cc(-c3ccc(C(=O)NCc4ccc(C)nc4C)cc3)ccc21` [Compound I-60, N-((2,6-dimethylpyridin-3-yl)methyl)-4-(1-propionylindolin-5-yl)benzamide]: the IC50 in test [1] stood at 0.384 µM; in test [1] (Homo sapiens, AGS, 96 h), 0.344 µM.
The molecule `CC(=O)N1CCc2cc(-c3ccc(C(=O)NCc4cccnc4)cc3)ccc21` [Compound I-42, 4-(1-acetylindolin-5-yl)-N-(pyridin-3-ylmethyl) benzamide] registered an IC50 in test [1] (Homo sapiens, AGS, 96 h) of 3.83 µM.
Same read-out and setting: to `CCC(=O)N1CCc2cc(-c3ccc(C(=O)NCC4CCOCC4)cc3)ccc21` [Compound I-191, 4-(1-propionylindolin-5-yl)-N-((tetrahydro-2H-pyran-4-yl)methyl)benzamide] belongs above 30 µM; to `CCC(=O)N1CCc2cc(-c3ccc(NC(=O)Cc4cccnc4)cc3)ccc21` [Compound I-95], above 30 µM; to `CCC(=O)n1ncc2cc(-c3ccc(C(=O)NCc4cccnc4)cc3)ccc21` [Compound I-56, 4-(1-propionyl-1H-indazol-5-yl)-N-(pyridin-3-ylmethyl)benzamide], 7.68 µM.
`CCC(=O)N1CCc2cc(-c3ccc(C(=O)NCc4cccnc4)cc3)c(F)cc21` [Compound I-211] had an IC50 in test [1] (Homo sapiens, AGS, 96 h) of 1.16 µM.
Molecule `CCC(=O)N1CCc2cc(-c3ccc(C(=O)NCc4cccc(F)c4)cc3)ccc21` [Compound I-174] came in with an IC50 in test [1] (Homo sapiens, AGS, 96 h) above 30 µM.
Take `CCC(=O)N1CCc2cc(-c3ccc(C(=O)NCC4CCNCC4)cc3)ccc21` [Compound I-70, N-(piperidin-4-ylmethyl)-4-(1-propionylindolin-5-yl)benzamide]: the IC50 in test [1] (Homo sapiens, AGS, 96 h) is above 30 µM.
In test [1] (Homo sapiens, AGS, 96 h), `CCCC(=O)N(C)c1ccc(-c2ccc(C(=O)NCc3cccnc3)cc2)cc1` [Compound I-230, 4′-(N-methylbutyramido)-N-(pyridin-3-ylmethyl)-[1,1′-biphenyl]-4-carboxamide] showed an IC50 of 4.57 µM.
In test [1] (Homo sapiens, AGS, 96 h), `CCC(=O)N(C)c1ccc(-c2ccc(C(=O)NCc3cccnc3)cc2)cc1C` [Compound I-215, 3′-methyl-4′-(N-methylpropionamido)-N-(pyridin-3-ylmethyl)-[1,1′-biphenyl]-4-carboxamide] showed an IC50 of 1.82 µM.
In test [1] (Homo sapiens, AGS, 96 h), `CC(C)(O)C(=O)N1CCc2cc(-c3ccc(C(=O)NCc4cccnc4)cc3)ccc21` [Compound I-68, 4-(1-(2-hydroxy-2-methylpropanoyl)indolin-5-yl)-N-(pyridin-3-ylmethyl)benzamide] showed a half-inhibitory concentration (IC50) of 29.7 µM.
Molecule `CCC(=O)N1CCc2cc(-c3ccc(C(=O)N(C)Cc4cccnc4)cc3)ccc21` [Compound I-62, N-methyl-4-(1-propionylindolin-5-yl)-N-(pyridin-3-ylmethyl)benzamide] yielded a 50% inhibitory concentration (IC50) in test [1] (Homo sapiens, 96 h) of 29.3 µM.
Molecule `CCC(=O)N1CCc2cc(N3CCN(C(=O)NCc4cccnc4)CC3)ccc21` [Compound I-223] displayed an IC50 in test [1] (Homo sapiens, AGS, 96 h) of 4.54 µM.
`CCC(=O)N1CCc2cc(-c3ccc(C(=O)NCc4ccc(C)nc4)cc3)ccc21` [Compound I-59, N-((6-methylpyridin-3-yl)methyl)-4-(1-propionylindolin-5-yl) benzamide] yielded an IC50 in test [1] (Homo sapiens, AGS, 96 h) above 30 µM.
With `CN(C(=O)c1cocn1)c1ccc(-c2ccc(C(=O)NCc3cccnc3)cc2)cc1` [Compound I-245], the midpoint of inhibition in test [1] (Homo sapiens, AGS, 96 h), the IC50, lay at 5.16 µM.
Molecule `CCC(=O)N1CCc2cc(-c3ccc(C(=O)NCc4ccncc4)cc3)ccc21` [Compound I-49, 4-(1-propionylindolin-5-yl)-N-(pyridin-4-ylmethyl)benzamide] registered an IC50 in test [1] (Homo sapiens, AGS, 96 h) above 30 µM.
With `CCC(=O)N(C)c1ccc(-c2ccc(C(=O)NCc3cncc(C)c3)cc2)cc1` [Compound I-237], the IC50 in test [1] (Homo sapiens, AGS, 96 h) is 6.69 µM.
On to `CC(=O)N1CCCc2cc(-c3ccc(C(=O)NCc4cccnc4)cc3)ccc21` [Compound I-46, 4-(1-acetyl-1,2,3,4-tetrahydroquinolin-6-yl)-N-(pyridin-3-ylmethyl)benzamide], for which the IC50 is above 18.3 µM in test [1] and above 17.5 µM in test [1] (Homo sapiens, AGS, 96 h).
For the molecule `CCC(=O)N1CCc2cc(-c3ccc(C(=O)NCc4ccco4)cc3)ccc21` [Compound I-181], in test [1] (Homo sapiens, AGS, 96 h), the IC50 is above 30 µM.
With `CCC(=O)N1CCc2cc(-c3ccc(C(=O)NCc4ccncn4)cc3)ccc21` [Compound I-204, 4-(1-propionylindolin-5-yl)-N-(pyrimidin-4-ylmethyl)benzamide], the IC50 in test [1] (Homo sapiens, AGS, 96 h) was above 30 µM.
Take `CCC(=O)N1CCc2cc(-c3ccc(C(=O)NCc4cccnc4C)cc3)ccc21` [Compound I-61, N-((2-methylpyridin-3-yl)methyl)-4-(1-propionylindolin-5-yl)benzamide]: the IC50 in test [1] (Homo sapiens, AGS, 96 h) is above 30 µM.

The record behind these values is patent US12522587B2, “Cancer treatments targeting cancer stem cells” (Remedy Plan, Inc., priority 2018, dated 2026).
